Test results published in patent US20200215016A1, “Ketone Bodies To Protect Tissues From Damage By Ionizing Radiation” (TDELTAS LIMITED, priority 2012, published 2020).

Key:
[1] = tested on: Human osteoblast cells (HOS); experiment: Cellular radioprotection of cultured osteoblasts exposed to 60Co gamma radiation; format: cell-based; details: ketone ester administered after radiation
Experimental: FIG. 1 is a pair of graphs illustrating cellular radioprotection by ketone esters. Human osteoblast cells (HOS) were treated with ketone esters either pre-(left panel) or post-(right panel) ^60Co gamma radiation (0.6 Gy/min). The methods used in the studies of cultured cells were the same as previously reported in Miller A. C. et al., Int. J. of Radiation Biol. 1997, 72: 211-18. The ester composition used was the mono R 3 hydroxybutyryl-R-1,3 butanediol enantiomerically enriched in the 1 position of R-1,3 butanediol. Studies were performed using cultured osteoblasts exposed to gamma radiation with and without (R)-1,3-butanediol ester of (R)-3-hydroxybutyrate as described herein to determine the effect of ketone esters on radiation damage. FIG. 1 is a pair of graphs illustrating cellular radioprotection by ketone esters in which human cultured osteoblast cells were treated pre- or post […] gamma radiation (0.6 Gy/min) with a ketone ester. FIG. 2 illustrates chromosomal protection by ketone esters. FIG. 3 is a pair of graphs illustrating protection against proton radiation after administration of ketones in which human cultured osteoblast cells were treated pre- or post-proton radiation (4 MeV) with a ketone ester. FIG. 4 is a graph illustrating ketone ester stability at pH 7. FIG. 5 is a graph illustrating ketone ester blood metabolite levels. […]

[2] = Ketone ester blood metabolite levels / ketosis after administration; format: in vivo; details: FIG. 5: 5 grams/kg dose, males
Experimental: FIG. 5 is a graph illustrating ketone ester blood metabolite levels (5 grams/kg dose, males).
To maintain elevated blood ketone body concentrations over a 24 hour period, delayed release formulations can be used. The release of the (R)-3-hydroxybutyrate derivatives can be controlled by a number of formulation techniques. For example, techniques such as enteric coatings, film coatings, microencapsulation and the like can be used to retard release of the (R)-3-hydroxybutyrate derivatives as is known to those of ordinary skill in the art.

HOS cells = experiment: Protection of cultured osteoblasts against proton radiation (4 MeV): cell survival and DNA damage; format: cell-based, human; details: ketone treatment prior to proton radiation (4 MeV)
Experimental: FIG. 3 is a pair of graphs and images illustrating protection against proton radiation after administration of ketones. HOS cells were treated with ketone esters either pre- or post-proton radiation (4 MeV). […] The methods used in the studies of cultured cells were the same as previously reported in Miller A. C. et al., Int. J. of Radiation Biol. 1997, 72: 211-18. The ester composition used was the mono R 3 hydroxybutyryl-R-1,3 butanediol enantiomerically enriched in the 1 position of R-1,3 butanediol. Studies were performed using cultured osteoblasts exposed to gamma radiation with and without (R)-1,3-butanediol ester of (R)-3-hydroxybutyrate as described herein to determine the effect of ketone esters on radiation damage. FIG. 1 is a pair of graphs illustrating cellular radioprotection by ketone esters in which human cultured osteoblast cells were treated pre- or post […] gamma radiation (0.6 Gy/min) with a ketone ester. FIG. 2 illustrates chromosomal protection by ketone esters. FIG. 3 is a pair of graphs illustrating protection against proton radiation after administration of ketones in which human cultured osteoblast cells were treated pre- or post-proton radiation (4 MeV) with a ketone ester. FIG. 4 is a graph illustrating ketone ester stability at pH 7. FIG. 5 is a graph illustrating ketone ester blood metabolite levels. […]

Compound: C[C@@H](O)CCOC(=O)C[C@@H](C)O [ketone esters, mono R 3 hydroxybutyryl-R-1,3 butanediol]
- cell salvage [1]: increases cell salvage
- generation of ketosis [2]: sustained generation of ketosis over a period of hours
- cell survival (HOS cells; FIG. 3 left graph): increased cell survival
- DNA damage (HOS cells; FIG. 3 right graph): mitigated DNA damage
